Drawing on ChEMBL document CHEMBL3507680, “University of Dundee, Gates Library screen for HepG2 cell viability”, this text covers cytotoxicity for 36 molecules.

A short description of the series: Human HepG2 cell viability assay in 384 well format. The class given is toxicity, cell-based. Set-up: dose 125 nL, time 70.5 hour; concentration not given beside the values. The following applies: HepG2 cells, read-out: Inhibition.
Regarding `Cc1ccc(N2CCCC3(CCN(C(=O)C4CC4)C3)C2)nn1` (stereo unspecified), the cytotoxicity at 70.5 h is -3.58%.

As to `COCCN1CCO[C@@H]2CN(C(=O)c3ccc4[nH]ccc4c3)CC[C@@H]2C1`, the cytotoxicity at 70.5 h was -11.1%.

Turning to `CNC(=O)[C@H]1C[C@@H]2CN(C(=O)c3cnc(C)cn3)C[C@@H]2N1C`, the cytotoxicity at 70.5 h is -8.55%.

For `CCOCC1CN(S(=O)(=O)CC)Cc2nn(C)cc21` (stereo unspecified), the cytotoxicity at 70.5 h was -8.48%.

Consider `CCN1C[C@@H]2CN(C(=O)c3cccn3C)C[C@@H]2C1=O`, for which the cytotoxicity at 70.5 h came out at 8.28%.

On to `c1cnc(N2CCOCC3(CCN(c4cnccn4)CC3)C2)nc1`, for which the cytotoxicity at 70.5 h is -8.75%.

For `COc1cc(F)ccc1CC(=O)N1CC[C@H]2C(=O)NCCO[C@H]2C1`, the cytotoxicity at 70.5 h was 0.421%.

For `O=C(CC(F)(F)F)N1CCC2(CCCN(c3nncs3)C2)C1` (stereo unspecified), the cytotoxicity at 70.5 h was -3.95%.

As for `CN1Cc2ccccc2CC2(CCN(C(=O)[C@H]3CCCO3)CC2)C1=O`, the cytotoxicity at 70.5 h was -4.74%.

`COc1cc(N2CCC3(C2)CN(c2cccnc2)C(=O)CN3C)ncn1` (stereo unspecified): the cytotoxicity at 70.5 h is -4.78%.

Turning to `CSc1cccc(NC(=O)N2CCC3(CCC(=O)N(C4CC4)C3)CC2)c1`, the cytotoxicity at 70.5 h was -9.9%.

Take `Cc1ccccc1C1(O)CCN(C(=O)CCc2cn3ccccc3n2)C1` (stereo unspecified): the cytotoxicity at 70.5 h was 17.9%.

As for `c1cc(-c2cc(C3CCN(Cc4cncnc4)C3)ccn2)ccn1` (stereo unspecified), the cytotoxicity at 70.5 h was 0.319%.

For `COc1cc(OC)cc(-n2ccnc2-c2cc3n(n2)CCNC3)c1`, the cytotoxicity at 70.5 h was found to be 19.3%.

Consider `CCN(CC)C(=O)Cn1cc(C(=O)NCCc2scnc2C)nn1`, for which the cytotoxicity at 70.5 h was -1.44%.

In the case of `CSc1ccccc1CN1CCn2nc(CNC(=O)N(C)C)cc2C1`, the cytotoxicity at 70.5 h is -8.7%.

Take `O=C1O[C@@H]2CN(c3ccccn3)C[C@@H]2N1CCCc1ccc(F)cc1`: the cytotoxicity at 70.5 h is -14.3%.

Regarding `CCc1ccc(CN(C)c2ccc(-c3nc(COC)no3)cn2)nc1`, the cytotoxicity at 70.5 h is -4.59%.

In the case of `CCCn1ncnc1C(C)NC(=O)C1CCN(C(=O)C2CC2)CC1` (stereo unspecified), the cytotoxicity at 70.5 h was -3.95%.

`COc1ccnc(N2C[C@@H]3CC[C@H](C2)N(CC2CCC2)C3=O)n1`: the cytotoxicity at 70.5 h is -0.827%.

Consider `COCCc1nc(CSc2ccncc2)n(C)n1`, for which the cytotoxicity at 70.5 h was found to be 1.99%.

`CC(C)n1cc(-c2nc3cc(S(=O)(=O)N4CCCC4)ccc3n2C)cn1`: the cytotoxicity at 70.5 h is -25.1%.

Turning to `Cc1nc2c(c(N(C)C)n1)CCN(C(=O)c1ccc(N)nc1)C2`, the cytotoxicity at 70.5 h is -7.14%.

With `CCN(CCOC)C(=O)c1ccc2c(c1)nc(N1CC[C@H](O)C1)n2C`, the cytotoxicity at 70.5 h was -8.67%.

For `CCO[C@@H]1CC[C@H]2[C@H]1OCCN2CCOCc1ccccc1`, the cytotoxicity at 70.5 h was -17.9%.

Turning to `CCO[C@H]1CC[C@H]2[C@H]1OCCN2CCOCc1ccccc1`, the cytotoxicity at 70.5 h is -11.1%.

As for `CN1CCO[C@@H]2CN(C(=O)c3ccc4[nH]ccc4c3)CC[C@@H]2C1`, the cytotoxicity at 70.5 h is -10.4%.

Take `CCN1CCO[C@@H]2CN(C(=O)c3ccc4[nH]ccc4c3)CC[C@@H]2C1`: the cytotoxicity at 70.5 h was -7.4%.

For the molecule `O=C(NC1CC1)[C@@H]1CCO[C@@H]2CCN(CC3CCC3)C[C@H]21`, the cytotoxicity at 70.5 h was -2.8%.

With `COCCN1CCOCC12CCN(c1nccs1)CC2`, the cytotoxicity at 70.5 h was -20.8%.

Turning to `O=C(NCc1cnc2n1CCN(Cc1ccoc1)C2)c1ccno1`, the cytotoxicity at 70.5 h is -0.405%.

On to `Cc1cnc(N2C[C@H]3CCCC(N(C)Cc4ccccn4)[C@H]3C2)nc1` (stereo partly specified), for which the cytotoxicity at 70.5 h is -9.85%.

For the molecule `Cc1ccc(CN2CCCC3(CCCCN3S(C)(=O)=O)C2)s1` (stereo unspecified), the cytotoxicity at 70.5 h turned out to be 19.2%.

Consider `CNC(=O)[C@H]1C[C@@H]2CN(C(=O)c3ccc(C)nc3)C[C@@H]2N1C(C)C`, for which the cytotoxicity at 70.5 h was -9.38%.

In the case of `Cc1cccc(CN2CCOC3(CCCN(CC(=O)N(C)C)C3)C2)n1` (stereo unspecified), the cytotoxicity at 70.5 h was -5.53%.

As to `CN1CCN(Cc2cccnc2)C(=O)C12CCN(C1CCOC1)CC2` (stereo unspecified), the cytotoxicity at 70.5 h was -5.29%.
